According to publication PMC12806164, “Epithelial Heparan Sulfate Promotes Staphylococcus aureus Corneal Infection by Inhibiting Cathelicidins” (Proteoglycan research, 2025):
Where two headings read alike, the source gives them in different places.

Tests used:
LL-37 = experiment: Inhibition by glycosaminoglycans of S. aureus killing by LL-37; format: cell-based, human; settings: 5 μg/mL glycosaminoglycan, 1 μM LL-37, ~500 cfu USA300, phosphate buffer pH 7.4, 2 h at 37°C, n = 6
Experimental: (§1) Samples were plated onto TSA plates, and viable bacteria (cfu) were counted the following day. Data are shown as % bacterial killing, where killing activity in the presence of cathelicidin only represents 100% (n = 6, *p < 0.05, ****p < 0.0001, one-way ANOVA, multiple comparisons).
(§2) (A) Schematics of HS/HP structure. […] (F) BaclightGreen-labeled S. aureus (~400 cfu) was incubated with 0.5 μM CRAMP without or with 5 μg/mL HP, NDS-HP, 2ODS-HP, 6ODS-HP, H, NS-H, or NS2OS-H for 30 min at room temperature. Bacteria were washed, incubated with 10 μg/mL propidium iodide for 15 min at 4°C, and live (green) and dead (red) bacteria were visualized by fluorescence microscopy.
(§3) Late log phase S. aureus USA300 was washed with phosphate buffer (8.2 mM Na2HPO4, 1.8 mM KH2PO4, pH 7.4) and approximately 500 cfu were incubated with cathelicidins with or without excess GAGs for 2 h at 37°C as indicated. Viable bacteria were enumerated by plating onto TSA plates and counting colonies the following day. Results are shown as % bacterial killing, where 100% killing represents data derived from the group of bacteria incubated with cathelicidins only.

CRAMP [1] = experiment: Alexa 647-CRAMP binding to Affi-Gel HP beads, competition by HP compounds (flow cytometry); design: species or system mouse; settings: 20 μg/mL competitor, 0.5 μM Alexa 647-conjugated CRAMP, 1 h at room temperature, n = 4
Experimental: FIGURE 4 | 2-O-sulfated heparan compounds directly bind to CRAMP with high affinity. Alexa 647-conjugated CRAMP (0.5 μM) was incubated with Affi-Gel HP beads without or with 20 μg/mL of HP, NDS-HP, 2ODS-HP, or 6ODS-HP for 1 h at room temperature. CRAMP fluorescence associated with Affi-Gel HP beads was analyzed by flow cytometry. Results are shown as (A) % CRAMP binding and (B) mean fluorescence intensity (MFI) of CRAMP binding (n = 4, ***p < 0.001, ****p < 0.0001). ITC analyses for CRAMP binding to HP were performed at 25°C using a MicroCal iTC 200 titration calorimetry. The fitted heat curves of titrating CRAMP binding to (C) HP and (D) 2ODS-HP are shown.
Affi-Gel HP beads were washed and resuspended in PBS. Affi-Gel HP beads (20 μL) were incubated with 0.5 μM Alexa 647-labeled CRAMP without or with 20 μg/mL HP, chemically desulfated HP, or chemoenzymatically sulfated H for 1 h at room temperature. Affi-Gel HP beads were washed with PBS, and the Alexa 647-labeled CRAMP bound to them was assessed by flow cytometry.

CAP-18 = experiment: Inhibition by glycosaminoglycans of S. aureus killing by CAP-18; format: cell-based, rabbit; settings: 5 μg/mL glycosaminoglycan, 0.5 μM CAP-18, ~500 cfu USA300, phosphate buffer pH 7.4, 2 h at 37°C, n = 6
Experimental: as §1, §2, §3

CRAMP [2] = experiment: Inhibition by glycosaminoglycans of S. aureus killing by CRAMP; format: cell-based, mouse; settings: 0.5 μM CRAMP; for Inhibition of S. aureus killing by CRAMP: 5 μg/mL glycosaminoglycan, ~500 cfu USA300, phosphate buffer pH 7.4, 2 h at 37°C, n = 6
Experimental: as §1, §2, §3
(§4) Figure S1. A) CRAMP expression was measured in uninfected Wt corneas or Wt corneas isolated at 4 h post-S. aureus USA300 infection. Briefly, eyes were enucleated, corneas were dissected, and isolated corneas were incubated with 10 mg/ml dispase II overnight at 4°C to peel off the corneal epithelium. Total RNA was purified from the corneal epithelium, and 1 ng of total RNA was analyzed by qRT-PCR for CRAMP or β-actin expression (n = 3, **p < 0.01). […] Bacterial killing was measured by plating serial dilutions onto TSA plates and counting colonies the following day. Results are shown as % bacterial survival (n = 4). Figure S2. […] Bacterial killing (%) was enumerated by plating serial dilutions onto TSA plates and counting colonies the following day (n = 5). B) Effects of pre-incubating S. aureus with glycosaminoglycans on bacterial killing by cathelicidins were examined by incubating 500 cfu of USA300 without or with 5 μg/ml HS, HP, DS, or CS for 30 min at 37°C. Bacteria were washed three times with buffer, incubated with 0.5 μM CRAMP for 2 h at 37°C, and % bacterial killing was determined by plating serial dilutions of samples (n = 4). Figure S3. S. aureus USA300 stained with BaclightGreen was incubated with 0.5 μM CRAMP in the absence or presence of 5 μg/ml HP, NDS-HP, 2ODS-HP, 6ODS-HP, H, NS-H, or NS2OS-H for 30 min at room temperature. Bacteria were washed and incubated with 10 μg/ml propidium iodide for 15 min on ice. Images were captured with a fluorescence microscope (Zeiss Axiovert 40 CFL). Quantification of % dead bacteria (out of total bacteria in field) is shown at the bottom. Figure S4. Alexa 647-conjugated CRAMP (0.5 μM) was incubated with fixed S. aureus USA300 without or with 5 μg/ml of the indicated glycosaminoglycans and chemically-desulfated HP compounds for 1 h at room temperature. S. aureus-associated CRAMP fluorescence was analyzed by flow cytometry. Representative FACS density plots are shown where heparan compounds containing 2-O-sulfated motifs decreased Alexa CRAMP binding by over 79% compared to the control (No GAG), except for NDS-HP where the reduction was approximately 65%. Fig. S5. Relative mRNA levels of A) Ndst1 and B) Sdc1 in the corneal epithelium of Hs2st^fl/fl, Krt12Cre, and Hs2st^fl/fl/Krt12Cre mice (n = 3).

SMAP-29 = experiment: Inhibition by glycosaminoglycans of S. aureus killing by SMAP-29; format: cell-based, sheep; settings: 5 μg/mL glycosaminoglycan, 0.5 μM SMAP-29, ~500 cfu USA300, phosphate buffer pH 7.4, 2 h at 37°C, n = 6
Experimental: as §1, §2, §3

[3] = ref 44 (LL-37), ref 39 (CAP-18), ref 42 (SMAP-29); cited from earlier work
Text: Next, we examined the dose response to cathelicidins from different species, which can have relatively large differences in primary sequence.

S. aureus USA300 [4] = settings: 500 cfu S. aureus USA300, 2 h at 37°C, cfu on TSA plates, n = 4
Experimental: Bacterial killing was measured by plating serial dilutions onto TSA plates and counting colonies the following day. Results are shown as % bacterial survival (n = 4). […] Bacterial killing (%) was enumerated by plating serial dilutions onto TSA plates and counting colonies the following day (n = 5). B) Effects of pre-incubating S. aureus with glycosaminoglycans on bacterial killing by cathelicidins were examined by incubating 500 cfu of USA300 without or with 5 μg/ml HS, HP, DS, or CS for 30 min at 37°C. Bacteria were washed three times with buffer, incubated with 0.5 μM CRAMP for 2 h at 37°C, and % bacterial killing was determined by plating serial dilutions of samples (n = 4). […] Images were captured with a fluorescence microscope (Zeiss Axiovert 40 CFL). Quantification of % dead bacteria (out of total bacteria in field) is shown at the bottom. […] S. aureus-associated CRAMP fluorescence was analyzed by flow cytometry.

CRAMP [5] = experiment: Alexa 647-CRAMP binding to fixed S. aureus, inhibition by glycosaminoglycans (flow cytometry); design: species or system mouse; settings: 0.5 μM Alexa 647-conjugated CRAMP; for Reduction of proportion of CRAMP-bound bacteria (Alexa CRAMP binding, FACS density plots) compared to No GAG: 5 μg/ml glycosaminoglycan, fixed S. aureus USA300, 1 h at room temperature, representative plots; for Decrease of MFI of Alexa-labeled CRAMP binding to S. aureus compared to control: 5 μg/mL glycosaminoglycan, 2% paraformaldehyde-fixed S. aureus USA300, 1 h at room temperature, n = 3
Experimental: Alexa 647-conjugated CRAMP (0.5 μM) was incubated with 2% paraformaldehyde-fixed Staphylococcus aureus USA300 without or with 5 μg/mL HP, HS, CS, DS, NDS-HP, 6ODS-HP, or 2ODS-HP for 1 h at room temperature. S. aureus-associated CRAMP fluorescence was analyzed by flow cytometry. Results are shown as % Alexa CRAMP binding (n = 3, ****p < 0.0001).
Alexa 647 fluorophore was conjugated to CRAMP using the Lightning-Link Rapid FluoProbes647H labeling kit following the manufacturer’s instructions. S. aureus USA300 fixed in 2% paraformaldehyde for 20 min was resuspended in 20 μL of phosphate buffer and incubated with 0.5 μM of Alexa 647-labeled CRAMP for 30 min at room temperature without or with glycosaminoglycans. Unbound Alexa 647-labeled CRAMP was removed by washing with phosphate buffer, and Alexa 647-labeled CRAMP bound to bacteria was assessed by flow cytometry.
as §4

S. aureus USA300 [6] = experiment: Pre-incubation of S. aureus with glycosaminoglycans, washing, then killing by cathelicidin; format: cell-based, Staphylococcus aureus; settings: 5 μg/ml glycosaminoglycan pre-incubated with 500 cfu USA300 30 min at 37°C, washed three times, then 0.5 μM CRAMP 2 h at 37°C, n = 4
Experimental: Figure S1. A) CRAMP expression was measured in uninfected Wt corneas or Wt corneas isolated at 4 h post-S. aureus USA300 infection. Briefly, eyes were enucleated, corneas were dissected, and isolated corneas were incubated with 10 mg/ml dispase II overnight at 4°C to peel off the corneal epithelium. Total RNA was purified from the corneal epithelium, and 1 ng of total RNA was analyzed by qRT-PCR for CRAMP or β-actin expression (n = 3, **p < 0.01). […] Bacterial killing was measured by plating serial dilutions onto TSA plates and counting colonies the following day. Results are shown as % bacterial survival (n = 4). Figure S2. […] Bacterial killing (%) was enumerated by plating serial dilutions onto TSA plates and counting colonies the following day (n = 5). B) Effects of pre-incubating S. aureus with glycosaminoglycans on bacterial killing by cathelicidins were examined by incubating 500 cfu of USA300 without or with 5 μg/ml HS, HP, DS, or CS for 30 min at 37°C. Bacteria were washed three times with buffer, incubated with 0.5 μM CRAMP for 2 h at 37°C, and % bacterial killing was determined by plating serial dilutions of samples (n = 4). Figure S3. […] Images were captured with a fluorescence microscope (Zeiss Axiovert 40 CFL). Quantification of % dead bacteria (out of total bacteria in field) is shown at the bottom. […] S. aureus-associated CRAMP fluorescence was analyzed by flow cytometry. […]

| Molecule | Inhibition of S. aureus killing by LL-37 (LL-37) | Inhibition of CRAMP binding to HP beads (CRAMP [1]) | Inhibition of S. aureus killing by CAP-18 (CAP-18) | Inhibition of S. aureus killing by CRAMP (CRAMP [2]) | Inhibition of S. aureus killing by SMAP-29 (SMAP-29) | pI [3] | S. aureus killed (S. aureus USA300 [4]; 1 μM peptide) | S. aureus killed (S. aureus USA300 [4]; 0.5 μM peptide) | Reduction of proportion of CRAMP-bound bacteria (Alexa CRAMP binding, FACS density plots) compared to No GAG (CRAMP [5]) | Decrease of MFI of Alexa-labeled CRAMP binding to S. aureus compared to control (CRAMP [5]) | Inhibition of bacterial killing by cathelicidins after pre-incubation with bacteria and washing away (S. aureus USA300 [6]) | Inhibition of bacterial killing by CRAMP, titration study (CRAMP [2]; 5 μg/mL (~0.5 μM) HS, 500 cfu USA300, 2 h at 37°C, n = 5) |
| --- | --- | --- | --- | --- | --- | --- | --- | --- | --- | --- | --- | --- |
| 6-O-desulfated HP [6ODS-HP] | did not alter the ability of HP to significantly inhibit | over 75% | did not alter the ability of HP to significantly inhibit | did not alter the ability of HP to significantly inhibit | did not alter the ability of HP to significantly inhibit | – | – | – | – | – | – | – |
| CC[C@H](C)[C@H](NC(=O)[C@H](CCCCN)NC(=O)[C@H](CCC(=O)O)NC(=O)[C@H](CCCCN)NC(=O)[C@H](CO)NC(=O)[C@H](CCCCN)NC(=O)[C@H](CCCNC(=N)N)NC(=O)[C@H](Cc1ccccc1)NC(=O)[C@H](Cc1ccccc1)NC(=O)[C@H](CC(=O)O)NC(=O)CNC(=O)[C@H](CC(C)C)NC(=O)[C@@H](N)CC(C)C)C(=O)NCC(=O)N[C@@H](CCCCN)C(=O)N[C@@H](CCC(=O)O)C(=O)N[C@@H](Cc1ccccc1)C(=O)N[C@@H](CCCCN)C(=O)N[C@@H](CCCNC(=N)N)C(=O)N[C@H](C(=O)N[C@H](C(=O)N[C@@H](CCC(N)=O)C(=O)N[C@@H](CCCNC(=N)N)C(=O)N[C@H](C(=O)N[C@@H](CCCCN)C(=O)N[C@@H](CC(=O)O)C(=O)N[C@@H](Cc1ccccc1)C(=O)N[C@@H](CC(C)C)C(=O)N[C@@H](CCCNC(=N)N)C(=O)N[C@@H](CC(N)=O)C(=O)N[C@@H](CC(C)C)C(=O)N[C@H](C(=O)N1CCC[C@H]1C(=O)N[C@@H](CCCNC(=N)N)C(=O)N[C@H](C(=O)N[C@@H](CCC(=O)O)C(=O)N[C@@H](CO)C(=O)O)[C@@H](C)O)C(C)C)[C@@H](C)CC)C(C)C)[C@@H](C)CC [LL-37] | – | – | – | – | – | 10.5 | Greater than 98% | – | – | – | – | – |
| CAP-18 | – | – | – | – | – | 11.9 | – | Greater than 98% | – | – | – | – |
| N-desulfated HP [NDS-HP] | did not alter the ability of HP to significantly inhibit | over 75% | did not alter the ability of HP to significantly inhibit | did not alter the ability of HP to significantly inhibit | did not alter the ability of HP to significantly inhibit | – | – | – | approximately 65% | – | – | – |
| chondroitin sulfate A [CS] | no significant effect | – | no significant effect | no significant effect | no significant effect | – | – | – | not | no effect | – | – |
| dermatan sulfate [DS] | 27% | – | 21% | did not inhibit | did not inhibit | – | – | – | not | no effect | – | – |
| heparan sulfate [HS] | over 70% | – | over 70% | over 70% | over 70% | – | – | – | – | – | did not inhibit | significantly inhibited |
| heparosan | minimal effect | – | minimal effect | minimal effect | minimal effect | – | – | – | – | – | – | – |
